Earlier results on eight molecules are cited in patent US20110184379A1, “METHOD AND SYSTEM TO DEFINE PATIENT SPECIFIC THERAPEUTIC REGIMENS BY MEANS OF PHARMACOKINETIC AND PHARMACODYNAMIC TOOLS” (MEDTRONIC, INC., priority 2008, published 2011).

Where two headings read alike, the source gives them in different places. Some results are limits rather than exact numbers.

The subject of series [1] is HCV.
Series [2] relates to HCV. The source holds these as a separate data set.
For series [3] the following is noted: preliminary review of blinded data, four completed cohorts.
Series [4] relates to Hepatitis C virus replicon.
The test system of a further series is HCV genotype 1. As to conditions: 5 days of dosing.
The test system of series [5] is genotype 1 HCV polymerases.
Series [6] deals with HCV. This is another data set of the same source.
Series [7] has as its system HCV. As to conditions: for viral load reduction: oral.
Series [8] has as its system HCV. The source holds these as a separate data set.
For a further series, the system named is HCV genotype-1. The note with it: 14-day course.
For series [9], the system named is chronic hepatitis C virus (HCV) genotype 1. The note with it: for SVR at 24 weeks after the end of treatment (SVR 24): 28-week Boceprevir arm.

As to interferon-α, the “therapeutic effectiveness of the combination” value in the series with HCV [1] (ribavirin combined with interferon-α, genotype 1 population) is 29%. Besides, the “delay before HCV RNA decline” value in the series with HCV [2] (IFN or IFN plus ribavirin) is 7 to 10 h. Further, the “fall of HCV RNA in the first phase (1-2 days), on average” value with HCV [2] (genotype 1 infected patients) is on record as 1-2 logs.

As to `CC(C)(C)OC(=O)N[C@H]1CCCCC/C=C\[C@@H]2C[C@@]2(C(=O)NS(=O)(=O)C2CC2)NC(=O)[C@@H]2C[C@@H](OC(=O)N3Cc4cccc(F)c4C3)CN2C1=O` [ITMN-191], the safety and tolerability entry (preliminary safety data, doses intended for Phase 1b) is “well tolerated and safe”; the safety and tolerability entry in [3] is “safe and well-tolerated”. Also, the serious adverse events entry (single ascending dose, healthy subjects) is “no serious adverse events were reported”.

As for `COc1ccc2c(O[C@@H]3C[C@H]4C(=O)N[C@]5(C(=O)NS(=O)(=O)C6CC6)C[C@H]5/C=C\CCCCN(C)C(=O)[C@@H]4C3)cc(-c3nc(C(C)C)cs3)nc2c1C` [TMC435350], the appearance of drug-resistance result in [4] (combination with interferon) is on record as “suppress the appearance of drug-resistance”. Besides, in series [4] (combination with interferon, replicon model), the RNA reduction is on record as over 4 logs. In addition, the “effect on Hepatitis C virus replication” value in series [4] (replicon experiments, via protease inhibition) is on record as “reduce the amount of Hepatitis C virus replication”. In the series with HCV genotype 1, the tolerability result is given as “well tolerated”. Besides, the antiviral activity entry in the series on HCV genotype 1 (genotype 1 infected individuals) is “strong and rapid antiviral activity”.

Consider `COC[C@H]1C[C@@](Cn2cccn2)(C(=O)O)N(C(=O)c2ccc(C(C)(C)C)c(OC)c2)[C@H]1c1nccs1` [GSK625433], for which, in [5], the “inhibition of genotype 1 HCV polymerases” value was “highly potent and selective inhibitor”; the “interaction with interferon in vitro” value is “synergistic”.

As to `CC(C)C(=O)OC[C@H]1O[C@@H](n2ccc(N)nc2=O)[C@](C)(F)[C@@H]1OC(=O)C(C)C` [R71278], the “decrease in HCV RNA (viral load)” value in the series on HCV [6] (1,500 mg twice-daily arm) is over 99%. In the series with HCV [6] (in vivo), the “antiviral activity across all dosing arms” value is on record as “dose-dependent antiviral activity”; the safety and tolerability result is “generally safe and well-tolerated with no serious adverse events”.

Turning to `[N-]=[N+]=N[C@]1(CO)O[C@@H](n2ccc(N)nc2=O)[C@H](O)[C@@H]1O` [R1626, 4′-azidocytidine], the viral load reduction with HCV [7] (100 mg dose (so in the source)) is 1.2 log 10; with HCV [7] (300 mg dose (so in the source)), 2.6 log 10; in the series with HCV [7] (4500 mg dose), 3.7 log 10. For the same molecule, the viral resistance entry in the series with HCV [7] (human, in vivo) is recorded as “No viral resistance was found”. Also, the tolerability result in the series on HCV [7] (increasing adverse events at the highest dose (4500 mg)) is “generally well-tolerated”. The “End-of-Treatment Response” value with HCV [8] (4 weeks R1626 + Peginterferon Alfa-2a (40 kd) + Ribavirin, then 44 weeks Peginterferon Alfa-2a + Ribavirin) is given as 84%. The barrier to resistance entry in the series on HCV [8] (in vivo) is on record as “high barrier to resistance”.

With `CC(C)(C)NC(=O)N[C@H](C(=O)N1C[C@H]2[C@@H]([C@H]1C(=O)NC(CC1CCC1)C(=O)C(N)=O)C2(C)C)C(C)(C)C` (some centres unmarked) [SCH503034], the “maximum HCV RNA reduction” value with HCV genotype-1 (400 mg group) is “more than 2 logs”. In the series on HCV genotype-1, the safety and tolerability result was “safe and well-tolerated with no serious adverse events”. Also, the “SVR at 24 weeks after the end of treatment (SVR 24)” value is reported as 56% in [9] (lead-in) and 55% in series [9] (no lead-in). For the same molecule, the “SVR rate at 12 weeks after the end of treatment (SVR 12)” value in series [9] (48-week regimen, 4 weeks PEGINTRON + REBETOL lead-in before Boceprevir 800 mg TID, ITT) is listed as 74%. Also, the “SVR 12” value in series [9] (48 weeks Boceprevir + PEGIntron + REBETOL from the beginning, no P/R lead-in) is given as 66%. The “SVR (ITT) in patients with rapid virologic response (RVR)” value in series [9] (lead-in, 28-week regimen) is 82%; in [9] (lead-in, 48 week regimen) it was 92%.

As to `NC(=O)c1ncn([C@@H]2O[C@H](CO)[C@@H](O)[C@H]2O)n1` [ribavirin, 1-β-D-ribofuranosyl-1H-1,2,4-triazole-3-carboxamide], in the series on HCV [1] (monotherapy), the efficacy result is recorded as “negligible efficacy”.
